Data on 3 compounds can be found in EPA's ToxRefDB 2.

The term LOAEL denotes the lowest dose or exposure tested at which an adverse effect was seen. For orientation: NOAEL means the highest dose or exposure tested at which no adverse effect was seen.

The test system of data set [1] is rabbit. To be noted: Prenatal developmental toxicity study, himalayan, Oral, Gavage/Intubation, dose end: 27 GD.
In data set [2] the test system is rabbit. To be noted: Prenatal developmental toxicity study, new zealand white, Oral, Gavage/Intubation, dose end: 18 GD.
Data set [3] deals with rabbit. The settings on record: Prenatal developmental toxicity study, new zealand white, Dermal, Topical, dose end: 19 GD.
Data set [4] concerns rabbit. The settings on record: Prenatal developmental toxicity study, other, Oral, Gavage/Intubation, dose end: 18 GD.
Data set [5] concerns mouse. To be noted: Multigenerational reproductive toxicity study, cd1, Oral, Water, dose end: 1 generation.
For data set [6], the system named is rabbit. The settings on record: Prenatal developmental toxicity study, new zealand white, Oral, Gavage/Intubation, dose end: 19 GD.
Data set [7] has as its system mouse. The settings on record: Prenatal developmental toxicity study, cd1, Oral, Gavage/Intubation, dose end: 15 GD.
Setting [8] is: group: developmental, developmental / developmental malformation / bone / [other] + developmental / developmental malformation / bone / fused + developmental / ….
Setting [9] is: group: maternal, reproductive / reproductive performance / postimplantation loss / postimplantation loss + systemic / in life observation / body weight / ….
Setting [10] is: group: developmental, developmental / developmental malformation / bone / [other] + developmental / developmental malformation / bone / curled + developmental / ….
Where [11] appears, read: group: maternal, systemic / in life observation / body weight / body weight gain.
Setting [12] is: group: maternal, systemic / in life observation / body weight / body weight gain + reproductive / reproductive performance / aborted / aborted + reproductive….
The mark [13] stands for this setting: group: developmental, developmental / developmental malformation / innominate artery / [other].
[14] abbreviates: group: developmental, systemic / in life observation / body weight / fetal weight.
[15] abbreviates: group: maternal, systemic / in life observation / body weight / body weight + systemic / in life observation / body weight / body weight gain + reproductive….
Setting [16] is: group: maternal, systemic / in life observation / body weight / body weight + systemic / in life observation / body weight / body weight gain + systemic / in….
[17] abbreviates: group: offspring, systemic / in life observation / body weight / offspring (pup) weight.
[18] abbreviates: group: parental, systemic / organ weight / liver / absolute + systemic / organ weight / liver / relative to body weight + systemic / organ weight / pituitary….
Where [19] appears, read: group: reproductive, reproductive / reproductive performance / reproductive performance other / NOS + reproductive / reproductive performance / gestational ….
Where [20] appears, read: group: developmental, developmental / developmental malformation / general / local edema + developmental / developmental malformation / great vessels / persistent….
The mark [21] stands for this setting: group: maternal, reproductive / reproductive performance / preimplantation loss / preimplantation loss + reproductive / reproductive performance / ….
Setting [22] is: group: developmental, developmental / developmental malformation / bone / exencephaly + developmental / developmental malformation / bone / fused + developmental….
Setting [23] is: group: maternal, systemic / organ weight / liver / relative to body weight.

Structures are written as SMILES. Bounds are passed on as bounds.

Take `CCCCCCCCCCCCCC[N+](C)(C)CCC[Si](OC)(OC)OC.[Cl-]`: in the data set on rabbit [1] (setting [8]), the LEL worked out at 180 mg/kg/day, the LOAEL was greater than 180 mg/kg/day, the NEL was determined as 90 mg/kg/day and the no observed adverse effect level (NOAEL) was no less than 180 mg/kg/day. Besides, in the data set on rabbit [1] (setting [9]), the LEL was determined as 180 mg/kg/day, the LOAEL is greater than 180 mg/kg/day, the NEL is 90 mg/kg/day and the NOAEL is no less than 180 mg/kg/day.
On to `Nc1ncn[nH]1` [Amitrole], for which the LEL in the data set on rabbit [2] (setting [10]) came out at 40 mg/kg/day; in the data set on rabbit [2] (setting [11]) it was 40 mg/kg/day; in the data set on rabbit [3] (setting [13]), 1000 mg/kg/day; in the data set on rabbit [3] (setting [15]), 2000 mg/kg/day; with rabbit [4] (setting [14]) it was 80 mg/kg/day; with rabbit [4] (setting [16]), 80 mg/kg/day. Further, the LOAEL was 40 mg/kg/day in the data set with rabbit [2] (setting [10]); 40 mg/kg/day in the data set with rabbit [2] (setting [11]); 2000 mg/kg/day with rabbit [3] (setting [14]); 2000 mg/kg/day in the data set on rabbit [3] (group: maternal, systemic / in life observation / body weight / body weight + systemic / in life observation / body weight / body weight gain); 80 mg/kg/day in the data set on rabbit [4] (setting [14]); 80 mg/kg/day in the data set with rabbit [4] (setting [16]). Further, the NEL is 4 mg/kg/day in the data set on rabbit [2] (setting [10]); 4 mg/kg/day with rabbit [2] (setting [12]); less than 1000 mg/kg/day with rabbit [3] (setting [13]); 1500 mg/kg/day in the data set on rabbit [3] (setting [15]); 20 mg/kg/day in the data set on rabbit [4] (setting [14]); 20 mg/kg/day in the data set on rabbit [4] (setting [16]). The no-observed-adverse-effect level (NOAEL) in the data set on rabbit [2] (setting [10]) was determined as 4 mg/kg/day; in the data set with rabbit [2] (setting [12]), 4 mg/kg/day; in the data set on rabbit [3] (group: developmental, systemic / in life observation / body weight / fetal weight + developmental / developmental malformation / bone / absent + developmental / …), 1500 mg/kg/day; in the data set with rabbit [3] (setting [15]) it was 1500 mg/kg/day; with rabbit [4] (setting [14]), 20 mg/kg/day; with rabbit [4] (setting [16]), 20 mg/kg/day.
With `COCCOCCOCCOC` [Triethylene glycol dimethyl ether], the LEL with mouse [5] (setting [17]) stood at 87.5 mg/kg/day; in the data set with mouse [5] (setting [18]), 175 mg/kg/day; in the data set with mouse [5] (group: reproductive, reproductive / reproductive performance / gestational length / gestational length), 87.5 mg/kg/day; with rabbit [6] (group: developmental, developmental / developmental malformation / spleen / small), 125 mg/kg/day; with rabbit [6] (setting [11]), 175 mg/kg/day; in the data set with mouse [7] (setting [14]), 500 mg/kg/day. For the same compound, the LEL with mouse [7] (setting [23]) was determined as 500 mg/kg/day. For the same compound, the LOAEL was greater than 175 mg/kg/day in the data set with mouse [5] (setting [17]); greater than 175 mg/kg/day in the data set on mouse [5] (setting [18]); greater than 175 mg/kg/day in the data set on mouse [5] (setting [19]); greater than 250 mg/kg/day in the data set on rabbit [6] (setting [20]); greater than 250 mg/kg/day in the data set with rabbit [6] (setting [21]); greater than 1000 mg/kg/day in the data set with mouse [7] (setting [22]). For the same compound, in the data set with mouse [7] (setting [23]), the LOAEL was greater than 1000 mg/kg/day. For the same compound, the NEL was 43.8 mg/kg/day with mouse [5] (setting [17]); 87.5 mg/kg/day with mouse [5] (setting [18]); 43.8 mg/kg/day in the data set on mouse [5] (setting [19]); 75 mg/kg/day in the data set on rabbit [6] (setting [20]); 125 mg/kg/day in the data set on rabbit [6] (setting [21]); 250 mg/kg/day in the data set on mouse [7] (setting [22]). Besides, the NEL with mouse [7] (setting [23]) is 250 mg/kg/day. The no-observed-adverse-effect level (NOAEL) with mouse [5] (setting [17]) was no less than 175 mg/kg/day; in the data set with mouse [5] (setting [18]), no less than 175 mg/kg/day; with mouse [5] (setting [19]) it was no less than 175 mg/kg/day; in the data set on rabbit [6] (setting [20]) it was no less than 250 mg/kg/day; in the data set on rabbit [6] (setting [21]), no less than 250 mg/kg/day; with mouse [7] (setting [22]) it was no less than 1000 mg/kg/day. Also, the no observed adverse effect level (NOAEL) in the data set on mouse [7] (setting [23]) is no less than 1000 mg/kg/day.
